{"source": "patent US5885786A", "about": "“Methods for screening of substances for inhibition of multidrug resistance” (priority 1996, dated 1999)", "key": {"[1]": {"system": "glycosphingolipid synthesis in MCF-7-AdrR cells", "assay": "Synthesis of glycosphingolipids in MCF-7-AdrR cells labeled with [3H]galactose", "format": "cell-based", "settings": "for inhibition at 5 µM: 5.0 μM tamoxifen, [3H]galactose 24 h, FIG. 10", "procedure": "FIG. 10. […] Glc-cer, glycosylceramide; Lac-cer, lactosylceramide; Con, control; Tam, tamoxifen.\nMCF-7 cells, grown in medium containing 10% FBS, were switched to media containing 5% FBS. Cell lipids were radiolabeled by adding [^3 H]serine (2.0 μCi/ml), [^3 H]palmitic acid (1.0 μCi/ml), or [^3 H]galactose (1.0 μCi/ml) to the culture medium for the indicated times. Other radiolabels can be substituted. Cells were then rinsed twice with PBS, pH 7.4, and 2 ml of ice-cold methanol containing 2% acetic acid was added. The cells were scraped free, transferred to glass test tubes (13×100 mm), and lipids were extracted by the addition of chloroform (2 ml) followed by water (2 ml). The resulting organic lower phase was withdrawn and evaporated under a stream of nitrogen. Lipids were resuspended in 100 μL of chloroform/methanol (1:1, v/v), and aliquots were applied to TLC plates.\nWhen using [^3 H]galactose, radiolabeled cells were transferred to glass tubes with PBS (1 ml), glucocerebroside (2.5 μg) was added to aid recovery, and lipids were extracted consecutively three times with 2 ml of chloroform/methanol (1:1, v/v)."}, "[2]": {"system": "human melanoma cell lines (M101, M10 and M24)", "assay": "Formation of glycosylceramide in human metastatic melanoma cell lines M101, M10 and M24", "format": "cell-based", "settings": "5.0 μM tamoxifen, 24 h, FIG. 17", "text": "FIG. 17. […] Identical aliquots of total lipid extract were applied to TLC, and the plate was exposed for autoradiography."}, "MCF-7-AdrR cells [3]": {"system": "MCF-7-AdrR cells", "assay": "Temporal pattern of tamoxifen influence on total lipid, glycosylceramide, sphingomyelin and ceramide metabolism", "format": "cell-based", "procedure": "FIG. 13A, FIG. 13B and FIG. 13C. Temporal Pattern for the Influence of Tamoxifen on Total Lipid, Glycosylceramide, and Sphingomyelin Metabolism in MCF-7-AdrR Cells. Cells, preincubated in the absence or presence of tamoxifen (20 μM) for 30 min, were labeled by addition of 1.0 μCi/ml [^3 H]palmitic acid for the times shown using RPMI-1640 medium containing 5% FBS. At each time point, cultures were washed with PBS and lipids were extracted as described under Example I. Aliquots of the labeling medium were counted directly by liquid scintillation spectrometry to determine [^3 H]palmitic acid uptake and incorporation into total cell lipids (FIG. 13A). Glycosylceramide (FIG. 13B) and sphingomyelin (FIG. 13C) levels were evaluated by TLC using solvent system I and II, respectively, followed by quantitation of radiolabel in the relevant regions as detailed in Example I. Results are the mean±SEM of duplicate determinations from two separate experiments.\n(§1) FIG. 14A and FIG. 14B. Effect of Tamoxifen on Ceramide Synthesis and Glycosylation in MCF-7-AdrR Cells. FIG. 14: A Influence of tamoxifen on ceramide synthesis. The experiment was conducted as described in the legend to FIG. 13. Aliquots of the total lipid extract were based-hydrolyzed as described in Example I, separated by TLC using solvent system IV, and the resolved [^3 H]ceramide was quantitated by liquid scintillation spectrometry. Results are the mean±SEM of duplicate determinations from two separate experiments. FIG. 14B: Effect of tamoxifen on glycosylation of C6 -ceramide. Cells, in 100×20 mm culture dishes, were preincubated without or with 5.0 μM tamoxifen for 30 min, followed by incubation without or with 5.0 μM C6 -ceramide:BSA (prepared at a 1:1 molar ratio) for an additional 30 min. Cells were labeled thereafter with 1.0 μCi/ml [^3 H]galactose for 24 h. [3H]Galactose uptake was determined and found to be similar in all experimental points (1.0×10^6 cpm/dish). The total extracted lipid was applied to TLC separation and [^3 H]glycosphingolipids were analyzed as described in the legend to FIG. 10. The autoradiography of a representative chromatogram is shown.\nLipid analysis was carried out by TLC using solvent system I: chloroform/methanol/ammonium hydroxide (40:10:1, v/v) for glycosylceramide separation, solvent system II: chloroform/methanol/water (60:40:8, v/v) for sphingoglycolipid separation, or solvent system III: chloroform/methanol/acetic acid/water (50:30:7:3, v/v) for sphingomyelin separation. For determination of ceramides, an aliquot of the chloroform-soluble lipids was base-hydrolyzed in 0.1N KOH in methanol for 1 h at 37° C., lipids were re-extracted, and separated by TLC using solvent system IV: hexane/diethyl ether/formic acid (60:40:1, v/v).\nRadiochromatograms were sprayed with EN^3 HANCE, and exposed for 3-7 days for autofluorgraphy. TLC areas, aligned with bands on the autoradiographs or with iodine-stained commercial lipid standards, were scraped from the plate. Water (0.5 ml) was added to the plate scrapings followed by 4.5 ml of EcoLume counting fluid, and the samples were quantitated by liquid scintillation spectrometry."}, "[4]": {"system": "glycosylation of ceramide in MCF-7-AdrR cells (UDP-glucose:ceramide glucosyltransferase)", "assay": "Glycosylation of C6-ceramide and natural glycosphingolipid synthesis, [3H]galactose labeling", "format": "cell-based", "settings": "for inhibition at 5 µM: 5.0 μM tamoxifen, FIG. 14B", "procedure": "as §1\nIn order to explore this notion, a short-chain ceramide analog with a 6-carbon N-acyl group (C6 -ceramide), was utilized as a substrate."}, "MCF-7-AdrR cells [5]": {"system": "MCF-7-AdrR cells", "assay": "Cell proliferation (MTS) assay: adriamycin toxicity and chemosensitization", "settings": "for effect on adriamycin toxicity / chemosensitization (in words): 5.0 μM tested drug + adriamycin, 72 h, FIG. 15A, 16B", "text": "FIG. 15A and FIG. 15B. […] FIG. 15B: Glycosylceramide levels in MDR Cells following drug treatment. […] In order to avoid differences in [^3 H]glycosylceramide values which account for cell death, the same amount of total radioactive lipid from each sample was applied to TLC separation.\nFIG. 16A and FIG. 16B. […] FIG. 16A: Effect of PPMP on cellular glycosylceramide levels. […] [^3 H]Glycosylceramide was quantitated as described in the legend to FIG. 9.\nVehicle (acetone, ethanol) was always added to control (minus drug) wells. The cytotoxic activity of a drug was determined using the Promega CellTiter 96™ AQueous MTS cell proliferation assay kit. Each experimental point was performed in six replicates. MTS/PMS solution (20 μl/well) was aliquoted into all wells, and the cells were incubated for 2-3 h, or until an O.D. of 0.9-1.0 was obtained as a highest reading. Thereafter, absorbence at 490 nm was recorded using an ELISA plate reader (Molecular Devices, San Diego, Calif.)."}, "[6]": {"system": "glycosylceramide synthesis in MCF-7-AdrR cells", "assay": "Glycosylceramide levels in MDR cells following drug treatment, [3H]serine 48 h", "format": "cell-based", "settings": "FIG. 15B"}}, "note": "“Also recorded” adds a separate entry of the source. Like-named read-outs stand apart in the source and are kept apart here.", "data": [{"smiles": "CC/C(=C(\\c1ccccc1)c1ccc(OCCN(C)C)cc1)c1ccccc1", "note": "[tamoxifen]", "values": [{"measurement": "inhibition at 5 µM", "setting": "[1]; read-out: reduction of ganglioside level", "value": 33, "unit": "%"}, {"measurement": "inhibition at 5 µM", "setting": "[1]; read-out: reduction of glycosylceramide level", "value": 69, "unit": "%"}, {"measurement": "inhibition at 5 µM", "setting": "[1]; read-out: reduction of lactosylceramide level", "value": 74, "unit": "%"}, {"measurement": "synthesis of higher gangliosides (in words)", "setting": "[1]; tamoxifen, MCF-7-AdrR", "value": "suppress synthesis of higher gangliosides"}, {"measurement": "inhibition of glucosylceramide formation (in words)", "setting": "[2]", "value": "inhibition of glucosylceramide formation"}, {"measurement": "inhibition of glycosylceramide synthesis within 4 h (in words)", "setting": "MCF-7-AdrR cells [3]; tamoxifen 20 μM, 4 h time frame, FIG. 13B", "value": "almost completely inhibited"}, {"measurement": "uptake and incorporation of [3H]palmitic acid (in words)", "setting": "MCF-7-AdrR cells [3]; tamoxifen 20 μM, FIG. 13A", "value": "very similar"}, {"measurement": "onset of glycosylceramide formation inhibition", "setting": "MCF-7-AdrR cells [3]; tamoxifen 20 μM, FIG. 13B", "value": 15, "unit": "min"}, {"measurement": "time of half-maximal influence on glycosylceramide formation", "setting": "MCF-7-AdrR cells [3]; tamoxifen 20 μM, FIG. 13B", "value": 45, "unit": "min"}, {"measurement": "sphingomyelin synthesis (in words)", "setting": "MCF-7-AdrR cells [3]; tamoxifen 20 μM, FIG. 13C", "value": "not influenced; also recorded: not altered"}, {"measurement": "level of ceramide / ceramide synthesis (in words)", "setting": "MCF-7-AdrR cells [3]; tamoxifen, FIG. 14A", "value": "remained unchanged; also recorded: very similar"}, {"measurement": "inhibition at 5 µM", "setting": "[4]; 5.0 μM C6-ceramide, read-out: inhibition of conversion of C6-ceramide to C6-glycosylceramide", "value": 54, "unit": "%"}, {"measurement": "inhibition at 5 µM", "setting": "[4]; in presence of C6-ceramide, read-out: inhibition of formation of natural glycosylceramide", "value": 43, "unit": "%"}, {"measurement": "inhibition of glycosylation of C6-ceramide (in words)", "setting": "[4]; tamoxifen", "value": "drastically inhibited"}, {"measurement": "effect on adriamycin toxicity / chemosensitization (in words)", "setting": "MCF-7-AdrR cells [5]", "value": "shifted to lower concentrations; also recorded: very potent in cell killing"}, {"measurement": "effect on adriamycin toxicity / chemosensitization (in words)", "setting": "MCF-7-AdrR cells [5]; listed as Tamoxifen", "value": "potently sensitized"}, {"measurement": "effect of the substance alone on cell survival (in words)", "setting": "MCF-7-AdrR cells [5]; MCF-7-AdrR, alone", "value": "not toxic"}, {"measurement": "inhibition of glycosylceramide synthesis (in words)", "setting": "[6]; 5.0 μM, alone or with adriamycin 2.5 μM", "value": "greatly retarded"}, {"measurement": "inhibition of glycosylceramide production, tamoxifen added to adriamycin", "setting": "[6]; tamoxifen 5.0 μM + adriamycin 2.5 μM", "value": 72, "unit": "%"}]}]}
